Assay results published in ChEMBL document CHEMBL1142908, “Selective L-nitroargininylaminopyrrolidine and L-nitroargininylaminopiperidine neuronal nitric oxide synthase inhibitors” (Bioorg Med Chem, 2007).
Residues, ends and D or L forms follow the SMILES beside them.

What was measured:
Nitric oxide synthase 1 = Nitric oxide synthase 1 (Rattus norvegicus, UniProt P29476); assay: Inhibition of rat recombinant nNOS expressed in Escherichia coli assessed as nitric oxide production by hemoglobin capture assay
[1] = biological target: T1, Nitric oxide synthase, inducible (Mus musculus, UniProt P29477); assay: Inhibition of mouse recombinant iNOS expressed in Escherichia coli assessed as nitric oxide production by hemoglobin capture assay
T1 sequence (P29477 whole entry): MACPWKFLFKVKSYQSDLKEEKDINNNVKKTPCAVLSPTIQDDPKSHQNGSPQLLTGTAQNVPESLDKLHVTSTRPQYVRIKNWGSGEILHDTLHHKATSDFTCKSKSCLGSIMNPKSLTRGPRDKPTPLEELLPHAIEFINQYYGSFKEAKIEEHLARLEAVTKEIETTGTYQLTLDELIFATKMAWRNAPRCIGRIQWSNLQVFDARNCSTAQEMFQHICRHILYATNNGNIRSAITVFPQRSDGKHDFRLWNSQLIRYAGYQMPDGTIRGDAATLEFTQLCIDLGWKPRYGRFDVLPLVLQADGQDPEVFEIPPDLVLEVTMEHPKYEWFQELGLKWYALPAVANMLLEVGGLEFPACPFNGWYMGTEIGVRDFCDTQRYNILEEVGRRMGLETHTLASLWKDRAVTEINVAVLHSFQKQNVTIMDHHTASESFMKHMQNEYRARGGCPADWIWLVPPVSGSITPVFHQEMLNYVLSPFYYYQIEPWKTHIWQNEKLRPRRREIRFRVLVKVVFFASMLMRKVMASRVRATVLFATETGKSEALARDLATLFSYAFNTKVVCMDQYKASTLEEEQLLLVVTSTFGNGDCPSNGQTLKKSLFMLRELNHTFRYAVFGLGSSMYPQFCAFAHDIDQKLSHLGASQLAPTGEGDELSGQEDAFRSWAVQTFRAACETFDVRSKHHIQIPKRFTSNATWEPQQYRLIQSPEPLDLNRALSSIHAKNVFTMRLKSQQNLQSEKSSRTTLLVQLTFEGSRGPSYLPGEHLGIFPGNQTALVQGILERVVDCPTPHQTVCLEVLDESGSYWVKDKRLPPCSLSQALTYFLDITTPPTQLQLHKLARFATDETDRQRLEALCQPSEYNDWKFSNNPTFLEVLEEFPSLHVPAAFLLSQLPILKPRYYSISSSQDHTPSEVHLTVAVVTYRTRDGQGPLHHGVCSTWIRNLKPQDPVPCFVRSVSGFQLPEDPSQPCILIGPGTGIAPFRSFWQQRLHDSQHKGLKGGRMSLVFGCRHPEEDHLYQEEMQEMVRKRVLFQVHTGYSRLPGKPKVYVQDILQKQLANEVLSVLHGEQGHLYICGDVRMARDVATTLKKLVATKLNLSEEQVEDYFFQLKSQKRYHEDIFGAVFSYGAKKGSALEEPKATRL

Nitric oxide synthase 3 = biological target: T2, Nitric oxide synthase 3 (Bos taurus, UniProt P29473); assay: Inhibition of bovine recombinant eNOS expressed in Escherichia coli assessed as nitric oxide production by hemoglobin capture assay
T2 sequence (P29473 whole entry): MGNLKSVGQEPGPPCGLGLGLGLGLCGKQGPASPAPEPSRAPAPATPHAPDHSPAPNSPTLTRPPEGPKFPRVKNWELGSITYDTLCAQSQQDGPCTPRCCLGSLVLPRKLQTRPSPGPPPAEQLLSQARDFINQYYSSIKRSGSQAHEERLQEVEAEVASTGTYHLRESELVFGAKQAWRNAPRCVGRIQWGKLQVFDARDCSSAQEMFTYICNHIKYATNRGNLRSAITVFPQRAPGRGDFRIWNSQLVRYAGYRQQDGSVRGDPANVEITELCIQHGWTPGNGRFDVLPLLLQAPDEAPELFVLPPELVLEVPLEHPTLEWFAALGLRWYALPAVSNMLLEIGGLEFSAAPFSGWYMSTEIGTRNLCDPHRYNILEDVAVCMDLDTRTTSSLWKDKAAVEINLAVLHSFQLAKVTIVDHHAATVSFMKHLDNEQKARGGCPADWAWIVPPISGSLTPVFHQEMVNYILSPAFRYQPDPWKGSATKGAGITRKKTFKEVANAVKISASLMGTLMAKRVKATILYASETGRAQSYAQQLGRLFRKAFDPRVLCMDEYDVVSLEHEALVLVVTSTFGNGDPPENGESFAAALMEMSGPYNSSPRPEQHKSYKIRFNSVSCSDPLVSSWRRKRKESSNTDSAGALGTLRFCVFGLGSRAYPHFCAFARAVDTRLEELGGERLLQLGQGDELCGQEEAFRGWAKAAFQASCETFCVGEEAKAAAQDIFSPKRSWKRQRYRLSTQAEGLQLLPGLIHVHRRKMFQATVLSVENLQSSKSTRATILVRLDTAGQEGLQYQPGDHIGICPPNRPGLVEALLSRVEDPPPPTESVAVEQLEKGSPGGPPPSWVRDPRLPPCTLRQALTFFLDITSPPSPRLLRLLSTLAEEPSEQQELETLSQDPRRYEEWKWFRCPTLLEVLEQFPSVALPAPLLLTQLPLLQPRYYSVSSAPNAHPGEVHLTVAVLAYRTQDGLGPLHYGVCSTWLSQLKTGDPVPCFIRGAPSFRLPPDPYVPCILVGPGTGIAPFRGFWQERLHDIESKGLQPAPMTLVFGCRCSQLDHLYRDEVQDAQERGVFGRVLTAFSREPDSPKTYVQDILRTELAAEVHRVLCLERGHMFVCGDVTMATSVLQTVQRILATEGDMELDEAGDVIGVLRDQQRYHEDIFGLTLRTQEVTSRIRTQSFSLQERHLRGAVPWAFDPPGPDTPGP

[2] = Selectivity of rat recombinant nNOS over mouse recombinant iNOS
[3] = Selectivity of rat recombinant nNOS over bovine recombinant eNOS

Nitric oxide synthase 1, sequence (P29476 whole entry): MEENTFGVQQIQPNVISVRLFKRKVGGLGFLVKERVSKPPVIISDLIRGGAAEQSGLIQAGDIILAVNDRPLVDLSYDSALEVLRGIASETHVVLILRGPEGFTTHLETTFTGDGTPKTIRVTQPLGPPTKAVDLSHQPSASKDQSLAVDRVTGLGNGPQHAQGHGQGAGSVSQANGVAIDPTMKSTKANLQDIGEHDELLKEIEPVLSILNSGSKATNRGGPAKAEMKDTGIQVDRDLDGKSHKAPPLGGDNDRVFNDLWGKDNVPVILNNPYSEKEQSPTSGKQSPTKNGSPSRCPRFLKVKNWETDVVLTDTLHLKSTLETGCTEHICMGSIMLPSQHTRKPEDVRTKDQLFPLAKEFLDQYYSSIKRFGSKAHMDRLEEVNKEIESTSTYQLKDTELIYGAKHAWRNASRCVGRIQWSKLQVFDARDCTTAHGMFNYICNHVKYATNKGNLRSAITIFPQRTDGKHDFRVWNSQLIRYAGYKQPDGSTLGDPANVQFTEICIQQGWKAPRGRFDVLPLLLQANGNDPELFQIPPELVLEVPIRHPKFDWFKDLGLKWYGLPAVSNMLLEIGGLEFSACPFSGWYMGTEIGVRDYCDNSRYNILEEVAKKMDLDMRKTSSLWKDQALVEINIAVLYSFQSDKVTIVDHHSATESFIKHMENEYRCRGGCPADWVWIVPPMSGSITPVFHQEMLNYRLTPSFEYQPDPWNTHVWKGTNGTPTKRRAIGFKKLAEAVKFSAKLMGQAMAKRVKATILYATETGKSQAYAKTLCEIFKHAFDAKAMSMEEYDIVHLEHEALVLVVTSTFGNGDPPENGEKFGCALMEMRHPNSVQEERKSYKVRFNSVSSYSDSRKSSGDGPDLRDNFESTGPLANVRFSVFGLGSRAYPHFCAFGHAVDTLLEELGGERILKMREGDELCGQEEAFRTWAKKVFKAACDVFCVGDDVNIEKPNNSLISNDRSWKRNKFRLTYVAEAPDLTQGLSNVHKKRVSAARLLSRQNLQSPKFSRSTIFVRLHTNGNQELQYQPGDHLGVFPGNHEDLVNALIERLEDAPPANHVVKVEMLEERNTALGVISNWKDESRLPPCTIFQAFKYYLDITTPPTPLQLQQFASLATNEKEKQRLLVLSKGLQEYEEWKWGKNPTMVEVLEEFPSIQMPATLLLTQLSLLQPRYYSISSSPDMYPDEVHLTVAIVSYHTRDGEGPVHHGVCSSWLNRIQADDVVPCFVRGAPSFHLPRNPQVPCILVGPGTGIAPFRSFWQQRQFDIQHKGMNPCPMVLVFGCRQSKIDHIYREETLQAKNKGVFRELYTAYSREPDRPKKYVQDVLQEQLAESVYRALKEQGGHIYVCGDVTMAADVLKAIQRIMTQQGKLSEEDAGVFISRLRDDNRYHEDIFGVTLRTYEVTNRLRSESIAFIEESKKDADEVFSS

Row | Structure (SMILES) | Ki (Nitric oxide synthase 1) [µM] | Ki [1] [µM] | Ki (Nitric oxide synthase 3) [µM] | Ratio Ki [2] | Ratio Ki [3]
1 | NC(=N[N+](=O)[O-])NCCC[C@H](N)C(=O)N[C@@H]1CCCNC1 | 0.48 | 90 | 225 | – | –
2 | N=C(NCCC[C@H](N)C(=O)N[C@@H]1CCNC1)N[N+](=O)[O-] | – | – | – | 250 | 309
3 | CN[C@@H](CCCNC(N)=N[N+](=O)[O-])C(=O)N[C@@H]1CCCNC1 | 2.26 | 242 | 174 | – | –
4 | N=C(NCCC[C@H](N)C(=O)N[C@@H]1CCCNC1)N[N+](=O)[O-] | – | – | – | 188 | 469
5 | C[C@H](NC(=O)[C@H](CC(N)=O)NC(=O)[C@@H](N)CC(N)=O)C(=O)O (H-Asn-Asn-Ala-OH) | 0.61 | 4.28 | 0.72 | 7 | 1.2
6 | CN[C@@H](CCCNC(=N)N[N+](=O)[O-])C(=O)NC1CCNCC1 | – | – | – | 216 | 48
7 | CN[C@@H](CCCNC(=N)N[N+](=O)[O-])C(=O)N[C@@H]1CCNC1 | – | – | – | 115 | 148
8 | CN[C@@H](CCCNC(N)=N[N+](=O)[O-])C(=O)NC1CCNCC1 | 2.38 | 515 | 114 | – | –
9 | CN[C@@H](CCCNC(=N)N[N+](=O)[O-])C(=O)N[C@@H]1CCCNC1 | – | – | – | 107 | 77
10 | CN[C@@H](CCCNC(N)=N[N+](=O)[O-])C(=O)N[C@@H]1CCNC1 | 1.08 | 124 | 160 | – | –
11 | N=C(NCCC[C@H](N)C(=O)N[C@H]1CCCNC1)N[N+](=O)[O-] | 7.62 | 535 | 221 | 70 | 29
12 | NC(=O)[C@@H]1C[C@@H](NC(=O)[C@@H](N)CCC/N=C(\N)N[N+](=O)[O-])CN1 | 0.33 | 17 | – | – | –
13 | N=C(NCCC[C@H](N)C(=O)NC1CCNCC1)N[N+](=O)[O-] | 0.47 | 202 | 262 | 430 | 557
14 | NC(=N[N+](=O)[O-])NCCC[C@H](N)C(=O)N[C@H]1CCNC1 | 1.76 | 57 | 77 | – | –
15 | CN[C@@H](CCCNC(=N)N[N+](=O)[O-])C(=O)N[C@H]1CN[C@H](C(N)=O)C1 | 1.09 | 65 | 290 | 60 | 266
16 | NC(=N[N+](=O)[O-])NCCC[C@H](N)C(=O)N[C@@H]1CCNC1 | 0.22 | 55 | 68 | – | –
17 | N=C(NCCC[C@H](N)C(=O)N[C@H]1CCNC1)N[N+](=O)[O-] | – | – | – | 32 | 44
